Experimental data from patent publication US8633245B2, “PAI-1 inhibitor” (Institute of Medicinal Molecular Design, Inc., priority 2008, dated 2014).

Molecular target: T1, recombinant human PAI-1 (Homo sapiens, UniProt P05121)
T1 construct: purchased Molecular Innovations, Inc
Experiment: Test Example 2: human PAI-1 inhibitory activity (tPA fluorogenic substrate, pH 7.4 HEPES buffer)
Assay type: biochemical
Conditions: human PAI-1
Protocol: 0.1 M HEPES, 0.1 M NaCl. 1 mM EDTA. 0.1% Polyethylene glycol 8,000 (Hampton Research Corporation),
2 mM Dimethyldecylphoshine oxide [Apo-10] (Fluka Corporation)

T1 sequence (P05121 24-402): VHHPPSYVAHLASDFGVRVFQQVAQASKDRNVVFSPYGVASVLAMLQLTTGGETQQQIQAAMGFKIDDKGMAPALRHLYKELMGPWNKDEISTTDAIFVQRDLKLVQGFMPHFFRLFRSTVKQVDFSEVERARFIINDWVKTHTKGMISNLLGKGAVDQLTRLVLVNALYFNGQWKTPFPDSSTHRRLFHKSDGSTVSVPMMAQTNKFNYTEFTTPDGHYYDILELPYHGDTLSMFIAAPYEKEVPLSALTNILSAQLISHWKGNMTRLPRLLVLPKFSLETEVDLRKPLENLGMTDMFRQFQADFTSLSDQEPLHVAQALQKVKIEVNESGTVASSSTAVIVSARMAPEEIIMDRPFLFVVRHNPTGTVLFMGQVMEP

Inhibition Rate of PAI-1 Activity (%) (compound concentration 0.1 μM) | Inhibition Rate of PAI-1 Activity (%) (compound concentration 0.3 μM) | Inhibition Rate of PAI-1 Activity (%) (compound concentration 1 μM) | Inhibition Rate of PAI-1 Activity (%) (compound concentration 3 μM) | Inhibition Rate of PAI-1 Activity (%) (compound concentration 10 μM) | Inhibition Rate of PAI-1 Activity (%) (compound concentration 25 μM) | SMILES
25 | 83 | 97 | 97 | – | – | CCCCN(CC(=O)O)c1ccc(-c2ccc(OC(F)(F)F)cc2)cc1Oc1ccc(C(C)(C)C)cc1 [Compound 533]
13 | 21 | 84 | >99 | – | – | CN(CC(=O)O)c1ccc(-c2ccc(OC(F)(F)F)cc2)cc1Oc1ccc(C(C)(C)C)cc1 [Compound 534]
1 | 12 | 87 | >99 | – | – | CC(C)(C)c1ccc(Oc2cc(Nc3ccc(OC(F)(F)F)cc3)ccc2OCC(=O)O)cc1 [Compound 536]
0 | 26 | 92 | 97 | – | – | CC(C)(C)c1ccc(Oc2ccc(Oc3ccc(OC(F)(F)F)cc3)cc2OCC(=O)O)cc1 [Compound 537]
0 | 12 | 87 | 98 | – | – | CC(C)(C)c1ccc(Oc2cc(Oc3ccc(OC(F)(F)F)cc3)ccc2OCC(=O)O)cc1 [Compound 538]
0 | 1 | 73 | 94 | – | – | O=C(O)/C=C/c1cc(-c2ccc(OC(F)(F)F)cc2)ccc1OCCCCCOc1ccc(-c2ccc(OC(F)(F)F)cc2)cc1/C=C/C(=O)O [Compound 543]
0 | 3 | 56 | 92 | – | – | O=C(O)CCc1cc(-c2ccc(OC(F)(F)F)cc2)ccc1OCCCCCOc1ccc(-c2ccc(OC(F)(F)F)cc2)cc1CCC(=O)O [Compound 544]
4 | 17 | 97 | >99 | – | – | CC(C)(C)c1ccc(Sc2cc(-c3ccc(OC(F)(F)F)cc3)ccc2C(=O)O)cc1 [Compound 547]
0 | 16 | 95 | >99 | – | – | CC(C)(C)c1ccc(Sc2cc(-c3ccc(OC(F)(F)F)cc3)ccc2C(=O)C(=O)O)cc1 [Compound 548]
23 | 22 | 84 | >99 | – | – | CC(C)(C)c1ccc(C(=O)c2cc(-c3ccc(OC(F)(F)F)cc3)ccc2OCC(=O)O)cc1 [Compound 549]
0 | 2 | 81 | >99 | – | – | CC(C)(C)c1ccc(Cc2cc(-c3ccc(OC(F)(F)F)cc3)ccc2OCC(=O)O)cc1 [Compound 550]
0 | 4 | 92 | >99 | – | – | CC(C)(C)c1ccc(CCc2cc(-c3ccc(OC(F)(F)F)cc3)ccc2OCC(=O)O)cc1 [Compound 551]
– | – | 9 | 18 | 78 | >99 | O=C(O)CC(=O)N(Cc1ccccc1)c1ccc(-c2ccc(OC(F)(F)F)cc2)cc1F [Compound 602]
– | – | 0 | 20 | 36 | 46 | CC(C)(C)c1ccc(CN(C(=O)CCCC(=O)O)c2ccc(-c3ccc(OC(F)(F)F)cc3)cc2)cc1 [Compound 604]
– | – | 11 | 59 | 95 | 95 | CC(C)(C)c1ccc(CN(C(=O)CC(=O)O)c2ccc(-c3ccc(OC(F)(F)F)cc3)cc2)cc1 [Compound 608]
– | – | 49 | 94 | 97 | 86 | CC(C)(C)c1ccc(N(CC(=O)O)c2ccccc2Oc2ccc(OC(F)(F)F)cc2)cc1 [Compound 610]
– | – | 5 | 13 | 45 | 81 | O=C(O)C(=O)N(Cc1ccc(-c2ccc(OC(F)(F)F)cc2)cc1)c1ccccc1 [Compound 611]
– | – | 7 | 25 | 84 | >99 | CC(C)(C)c1ccc(N(Cc2ccc(-c3ccccc3)cc2)C(=O)C(=O)O)cc1 [Compound 612]

Inhibition Rate of PAI-1 Activity (%) (compound concentration 0.1 μM) | Inhibition Rate of PAI-1 Activity (%) (compound concentration 0.3 μM) | Inhibition Rate of PAI-1 Activity (%) (compound concentration 1 μM) | Inhibition Rate of PAI-1 Activity (%) (compound concentration 3 μM) | Inhibition Rate of PAI-1 Activity (%) (compound concentration 10 μM) | Inhibition Rate of PAI-1 Activity (%) (compound concentration 25 μM) | SMILES
– | – | 43 | 98 | >99 | 95 | CC(C)(C)c1ccc(-c2ccc(CN(C(=O)C(=O)O)c3ccc(OC(F)(F)F)cc3)cc2)cc1 [Compound 615]
– | – | 6 | 64 | >99 | >99 | CC(C)(C)c1ccc(CN(C(=O)C(=O)O)c2ccc(C(=O)Nc3ccc(OC(F)(F)F)cc3)cc2)cc1 [Compound 617]
– | – | 0 | 24 | 78 | >99 | CN(C(=O)c1ccc(N(Cc2ccc(C(C)(C)C)cc2)C(=O)C(=O)O)cc1)c1ccc(OC(F)(F)F)cc1 [Compound 618]
– | – | 0 | 14 | 57 | >99 | CC(C)(C)c1ccc(CN(C(=O)C(=O)O)c2ccc(N3CCN(c4ccccc4)CC3)cc2)cc1 [Compound 627]
– | – | 40 | >99 | >99 | 90 | CC(C)(C)c1ccc(CN(C(=O)C(=O)O)c2ccc(N3CCN(c4ccc(OC(F)(F)F)cc4)CC3)cc2)cc1 [Compound 628]
0 | 9 | 31 | 97 | – | – | O=C(O)C(=O)N(Cc1ccc(-c2ccc(OC(F)(F)F)cc2)cc1)c1ccccc1-c1ccccc1 [Compound 632]
17 | 37 | >99 | 92 | – | – | O=C(O)C(=O)N(CCCCc1ccccc1)c1cc(-c2ccc(OC(F)(F)F)cc2)ccc1OC1C2CC3CC(C2)CC1C3 (centres unmarked) [Compound 634]
14 | 30 | 45 | 91 | – | – | CC(C)(C)c1ccc(Oc2cc(-c3ccc(OC(F)(F)F)cc3)ccc2N(CCCCc2ccccc2)C(=O)C(=O)O)cc1 [Compound 635]
2 | 21 | 72 | 81 | – | – | CC(C)(C)c1ccc(Oc2ccc(-c3ccc(OC(F)(F)F)cc3)cc2N(CCCCc2ccccc2)C(=O)C(=O)O)cc1 [Compound 636]
0 | 5 | 80 | 71 | – | – | CCCCC1CCC(Oc2ccc(-c3ccc(OC(F)(F)F)cc3)cc2N(CCCCc2ccccc2)C(=O)C(=O)O)CC1 (centres unmarked) [Compound 637]
5 | 15 | 57 | >99 | – | – | O=C(O)C(=O)N(CCCCc1ccccc1)c1cc(-c2ccc(OC(F)(F)F)cc2)ccc1Oc1ccccc1 [Compound 638]
6 | 12 | 91 | 87 | – | – | CC(C)[C@@H]1CC[C@@H](C)C[C@H]1Oc1ccc(-c2ccc(OC(F)(F)F)cc2)cc1N(CCCCc1ccccc1)C(=O)C(=O)O [Compound 639]
0 | 19 | 92 | 92 | – | – | CCCCCOc1ccc(-c2ccc(OC(F)(F)F)cc2)cc1N(CCCCc1ccccc1)CC(=O)O [Compound 640]
9 | 53 | 95 | 95 | – | – | CCCCC(C(=O)O)N(Cc1ccc(C(C)(C)C)cc1)c1cccc(-c2ccc(OC(F)(F)F)cc2)c1 (centres unmarked) [Compound 641]
16 | 57 | 94 | 93 | – | – | CCCCC(C(=O)O)N(Cc1ccc(C(C)(C)C)cc1)c1ccc(-c2ccc(OC(F)(F)F)cc2)cc1 (centres unmarked) [Compound 642]
0 | 18 | 38 | 92 | – | – | CCCCCOc1cc(-c2ccc(OC(F)(F)F)cc2)ccc1N(CCCCc1ccccc1)CC(=O)O [Compound 643]
27 | 8 | 30 | 93 | – | – | CC(C)(C)OCCOc1ccc(-c2ccc(OC(F)(F)F)cc2)cc1N(CCCCc1ccccc1)CC(=O)O [Compound 644]
